Results as given in ChEMBL document CHEMBL1153358, “Amide analogs of antifungal dioxane-triazole derivatives: synthesis and in vitro activities” (Bioorg Med Chem Lett, 2009).
Values after ≈ are worked out from the molar mass of the structure shown.

System: Candida albicans
Experiment: Antifungal activity against fluconazole-resistant Candida albicans TIMM3164
Format: functional
Conditions: not given

Row | Compound | MIC [µg/mL]
1 | C[C@@H](S[C@H]1CO[C@H](c2ccc(C(=O)N3CCSCC3)cc2)OC1)[C@](O)(Cn1cncn1)c1ccc(F)cc1F | 0.125 (≈ 0.217 µM)
2 | C[C@@H](S[C@H]1CO[C@H](c2ccc3cc(C(=O)Nc4ccc(C#N)cc4)ccc3c2)OC1)[C@](O)(Cn1cncn1)c1ccc(F)cc1F | 0.031 (≈ 0.0483 µM)
3 | C[C@@H](S[C@H]1CO[C@H](/C=C/S(=O)(=O)c2ccc(F)cc2)OC1)[C@](O)(Cn1cncn1)c1ccc(F)cc1F.O=C(O)/C=C\C(=O)O | 0.125
4 | C[C@@H](S[C@H]1CO[C@H](c2ccc(C(=O)Nc3ccc(SC(F)(F)F)cc3)cc2)OC1)[C@](O)(Cn1cncn1)c1ccc(F)cc1F | 0.031 (≈ 0.0465 µM)
5 | C[C@@H](S[C@H]1CO[C@H](c2ccc(C(=O)Nc3ccc(OCC(F)(F)C(F)F)cc3)cc2)OC1)[C@](O)(Cn1cncn1)c1ccc(F)cc1F | 0.031 (≈ 0.0445 µM)
6 | C[C@@H](S[C@H]1CO[C@H](c2cccc(C(=O)Nc3ccc(C#N)cc3)c2)OC1)[C@](O)(Cn1cncn1)c1ccc(F)cc1F | 0.25 (≈ 0.423 µM)
7 | C[C@@H](S[C@H]1CO[C@H](c2ccc(C(=O)Nc3ccc(C#N)cc3)cc2)OC1)[C@](O)(Cn1cncn1)c1ccc(F)cc1F | ≤ 0.008

System: Pichia kudriavzevii
Experiment: Antifungal activity against Candida krusei ATCC 6258
Format: functional
Conditions: not given

Row | Compound | MIC [µg/mL]
8 | C[C@@H](S[C@H]1CO[C@H](c2ccc(C(=O)Nc3ccc(C#N)cc3)cc2)OC1)[C@](O)(Cn1cncn1)c1ccc(F)cc1F | 0.063 (≈ 0.106 µM)

System: Aspergillus fumigatus
Experiment: Antifungal activity against Aspergillus fumigatus ATCC 26430
Format: functional
Conditions: not given

Row | Compound | MIC [µg/mL]
9 | C[C@@H](S[C@H]1CO[C@H](c2ccc(C(=O)Nc3ccc(C#N)cc3)cc2)OC1)[C@](O)(Cn1cncn1)c1ccc(F)cc1F | 0.031 (≈ 0.0524 µM)

System: Candida albicans
Experiment: Antifungal activity against Candida albicans ATCC 24433
Format: functional
Conditions: not given

Row | Compound | MIC [µg/mL]
10 | C[C@@H](S[C@H]1CO[C@H](c2ccc(C(=O)Nc3ccc(C#N)cc3)cc2)OC1)[C@](O)(Cn1cncn1)c1ccc(F)cc1F | ≤ 0.008

System: not listed separately
Experiment: Chemical stability assessed as half life in HCl
Format: physicochemical
Conditions: not given

Row | Compound | half-life [h]
11 | C[C@@H](S[C@H]1CO[C@H](c2ccc(C(=O)Nc3ccc(C#N)cc3)cc2)OC1)[C@](O)(Cn1cncn1)c1ccc(F)cc1F | 2.67

System: Aspergillus flavus
Experiment: Antifungal activity against Aspergillus flavus SANK 18497
Format: functional
Conditions: not given

Row | Compound | MIC [µg/mL]
12 | C[C@@H](S[C@H]1CO[C@H](c2ccc(C(=O)N3CCSCC3)cc2)OC1)[C@](O)(Cn1cncn1)c1ccc(F)cc1F | 4 (≈ 6.94 µM)
13 | C[C@@H](S[C@H]1CO[C@H](c2ccc3cc(C(=O)Nc4ccc(C#N)cc4)ccc3c2)OC1)[C@](O)(Cn1cncn1)c1ccc(F)cc1F | 0.25 (≈ 0.39 µM)
14 | C[C@@H](S[C@H]1CO[C@H](/C=C/S(=O)(=O)c2ccc(F)cc2)OC1)[C@](O)(Cn1cncn1)c1ccc(F)cc1F.O=C(O)/C=C\C(=O)O | > 4
15 | C[C@@H](S[C@H]1CO[C@H](c2ccc(C(=O)Nc3ccc(SC(F)(F)F)cc3)cc2)OC1)[C@](O)(Cn1cncn1)c1ccc(F)cc1F | 0.5 (≈ 0.75 µM)
16 | C[C@@H](S[C@H]1CO[C@H](c2ccc(C(=O)Nc3ccc(OCC(F)(F)C(F)F)cc3)cc2)OC1)[C@](O)(Cn1cncn1)c1ccc(F)cc1F | 0.5 (≈ 0.718 µM)
17 | C[C@@H](S[C@H]1CO[C@H](c2cccc(C(=O)Nc3ccc(C#N)cc3)c2)OC1)[C@](O)(Cn1cncn1)c1ccc(F)cc1F | > 4
18 | C[C@@H](S[C@H]1CO[C@H](c2ccc(C(=O)Nc3ccc(C#N)cc3)cc2)OC1)[C@](O)(Cn1cncn1)c1ccc(F)cc1F | 0.125 (≈ 0.211 µM)

System: Candida albicans
Experiment: Antifungal activity against Candida albicans SANK 51486
Format: functional
Conditions: not given

Row | Compound | MIC [µg/mL]
19 | C[C@@H](S[C@H]1CO[C@H](c2ccc(C(=O)N3CCSCC3)cc2)OC1)[C@](O)(Cn1cncn1)c1ccc(F)cc1F | 0.016 (≈ 0.0277 µM)
20 | C[C@@H](S[C@H]1CO[C@H](c2ccc3cc(C(=O)Nc4ccc(C#N)cc4)ccc3c2)OC1)[C@](O)(Cn1cncn1)c1ccc(F)cc1F | ≤ 0.008
21 | C[C@@H](S[C@H]1CO[C@H](/C=C/S(=O)(=O)c2ccc(F)cc2)OC1)[C@](O)(Cn1cncn1)c1ccc(F)cc1F.O=C(O)/C=C\C(=O)O | ≤ 0.008
22 | C[C@@H](S[C@H]1CO[C@H](c2ccc(C(=O)Nc3ccc(SC(F)(F)F)cc3)cc2)OC1)[C@](O)(Cn1cncn1)c1ccc(F)cc1F | ≤ 0.008
23 | C[C@@H](S[C@H]1CO[C@H](c2ccc(C(=O)Nc3ccc(OCC(F)(F)C(F)F)cc3)cc2)OC1)[C@](O)(Cn1cncn1)c1ccc(F)cc1F | 0.016 (≈ 0.023 µM)
24 | C[C@@H](S[C@H]1CO[C@H](c2cccc(C(=O)Nc3ccc(C#N)cc3)c2)OC1)[C@](O)(Cn1cncn1)c1ccc(F)cc1F | ≤ 0.008
25 | C[C@@H](S[C@H]1CO[C@H](c2ccc(C(=O)Nc3ccc(C#N)cc3)cc2)OC1)[C@](O)(Cn1cncn1)c1ccc(F)cc1F | ≤ 0.008

System: not listed separately
Experiment: Bioavailability in rat at 20 mg/kg, po
Format: ADME, organism-based
Conditions: in vivo

Row | Compound | bioavailability [%]
26 | C[C@@H](S[C@H]1CO[C@H](c2ccc(C(=O)Nc3ccc(C#N)cc3)cc2)OC1)[C@](O)(Cn1cncn1)c1ccc(F)cc1F | 31.7

System: Cryptococcus neoformans
Experiment: Antifungal activity against Cryptococcus neoformans TIMM 1855
Format: functional
Conditions: not given

Row | Compound | MIC [µg/mL]
27 | C[C@@H](S[C@H]1CO[C@H](c2ccc(C(=O)N3CCSCC3)cc2)OC1)[C@](O)(Cn1cncn1)c1ccc(F)cc1F | 0.031 (≈ 0.0538 µM)
28 | C[C@@H](S[C@H]1CO[C@H](c2ccc3cc(C(=O)Nc4ccc(C#N)cc4)ccc3c2)OC1)[C@](O)(Cn1cncn1)c1ccc(F)cc1F | 0.063 (≈ 0.0982 µM)
29 | C[C@@H](S[C@H]1CO[C@H](/C=C/S(=O)(=O)c2ccc(F)cc2)OC1)[C@](O)(Cn1cncn1)c1ccc(F)cc1F.O=C(O)/C=C\C(=O)O | 0.125
30 | C[C@@H](S[C@H]1CO[C@H](c2ccc(C(=O)Nc3ccc(SC(F)(F)F)cc3)cc2)OC1)[C@](O)(Cn1cncn1)c1ccc(F)cc1F | 0.016 (≈ 0.024 µM)
31 | C[C@@H](S[C@H]1CO[C@H](c2ccc(C(=O)Nc3ccc(OCC(F)(F)C(F)F)cc3)cc2)OC1)[C@](O)(Cn1cncn1)c1ccc(F)cc1F | 0.063 (≈ 0.0904 µM)
32 | C[C@@H](S[C@H]1CO[C@H](c2cccc(C(=O)Nc3ccc(C#N)cc3)c2)OC1)[C@](O)(Cn1cncn1)c1ccc(F)cc1F | 1 (≈ 1.69 µM)
33 | C[C@@H](S[C@H]1CO[C@H](c2ccc(C(=O)Nc3ccc(C#N)cc3)cc2)OC1)[C@](O)(Cn1cncn1)c1ccc(F)cc1F | 0.031 (≈ 0.0524 µM)

System: Nakaseomyces glabratus
Experiment: Antifungal activity against Candida glabrata ATCC 90030
Format: functional
Conditions: not given

Row | Compound | MIC [µg/mL]
34 | C[C@@H](S[C@H]1CO[C@H](c2ccc(C(=O)N3CCSCC3)cc2)OC1)[C@](O)(Cn1cncn1)c1ccc(F)cc1F | 4 (≈ 6.94 µM)
35 | C[C@@H](S[C@H]1CO[C@H](c2ccc3cc(C(=O)Nc4ccc(C#N)cc4)ccc3c2)OC1)[C@](O)(Cn1cncn1)c1ccc(F)cc1F | > 4
36 | C[C@@H](S[C@H]1CO[C@H](/C=C/S(=O)(=O)c2ccc(F)cc2)OC1)[C@](O)(Cn1cncn1)c1ccc(F)cc1F.O=C(O)/C=C\C(=O)O | 2
37 | C[C@@H](S[C@H]1CO[C@H](c2ccc(C(=O)Nc3ccc(SC(F)(F)F)cc3)cc2)OC1)[C@](O)(Cn1cncn1)c1ccc(F)cc1F | 1 (≈ 1.5 µM)
38 | C[C@@H](S[C@H]1CO[C@H](c2ccc(C(=O)Nc3ccc(OCC(F)(F)C(F)F)cc3)cc2)OC1)[C@](O)(Cn1cncn1)c1ccc(F)cc1F | > 4
39 | C[C@@H](S[C@H]1CO[C@H](c2cccc(C(=O)Nc3ccc(C#N)cc3)c2)OC1)[C@](O)(Cn1cncn1)c1ccc(F)cc1F | 2 (≈ 3.38 µM)
40 | C[C@@H](S[C@H]1CO[C@H](c2ccc(C(=O)Nc3ccc(C#N)cc3)cc2)OC1)[C@](O)(Cn1cncn1)c1ccc(F)cc1F | 2 (≈ 3.38 µM)

System: Candida tropicalis
Experiment: Antifungal activity against Candida tropicalis ATCC 750
Format: functional
Conditions: not given

Row | Compound | MIC [µg/mL]
41 | C[C@@H](S[C@H]1CO[C@H](c2ccc(C(=O)N3CCSCC3)cc2)OC1)[C@](O)(Cn1cncn1)c1ccc(F)cc1F | 0.5 (≈ 0.867 µM)
42 | C[C@@H](S[C@H]1CO[C@H](c2ccc3cc(C(=O)Nc4ccc(C#N)cc4)ccc3c2)OC1)[C@](O)(Cn1cncn1)c1ccc(F)cc1F | 0.016 (≈ 0.0249 µM)
43 | C[C@@H](S[C@H]1CO[C@H](/C=C/S(=O)(=O)c2ccc(F)cc2)OC1)[C@](O)(Cn1cncn1)c1ccc(F)cc1F.O=C(O)/C=C\C(=O)O | 0.5
44 | C[C@@H](S[C@H]1CO[C@H](c2ccc(C(=O)Nc3ccc(SC(F)(F)F)cc3)cc2)OC1)[C@](O)(Cn1cncn1)c1ccc(F)cc1F | 0.031 (≈ 0.0465 µM)
45 | C[C@@H](S[C@H]1CO[C@H](c2ccc(C(=O)Nc3ccc(OCC(F)(F)C(F)F)cc3)cc2)OC1)[C@](O)(Cn1cncn1)c1ccc(F)cc1F | 0.125 (≈ 0.179 µM)
46 | C[C@@H](S[C@H]1CO[C@H](c2cccc(C(=O)Nc3ccc(C#N)cc3)c2)OC1)[C@](O)(Cn1cncn1)c1ccc(F)cc1F | 1 (≈ 1.69 µM)
47 | C[C@@H](S[C@H]1CO[C@H](c2ccc(C(=O)Nc3ccc(C#N)cc3)cc2)OC1)[C@](O)(Cn1cncn1)c1ccc(F)cc1F | 0.016 (≈ 0.027 µM)

System: Candida albicans
Experiment: Antifungal activity against Candida albicans ATCC 64550
Format: functional
Conditions: not given

Row | Compound | MIC [µg/mL]
48 | C[C@@H](S[C@H]1CO[C@H](c2ccc(C(=O)Nc3ccc(C#N)cc3)cc2)OC1)[C@](O)(Cn1cncn1)c1ccc(F)cc1F | 0.25 (≈ 0.423 µM)

System: Aspergillus fumigatus
Experiment: Antifungal activity against Aspergillus fumigatus SANK 10569
Format: functional
Conditions: not given

Row | Compound | MIC [µg/mL]
49 | C[C@@H](S[C@H]1CO[C@H](c2ccc(C(=O)N3CCSCC3)cc2)OC1)[C@](O)(Cn1cncn1)c1ccc(F)cc1F | 0.5 (≈ 0.867 µM)
50 | C[C@@H](S[C@H]1CO[C@H](c2ccc3cc(C(=O)Nc4ccc(C#N)cc4)ccc3c2)OC1)[C@](O)(Cn1cncn1)c1ccc(F)cc1F | 0.063 (≈ 0.0982 µM)
51 | C[C@@H](S[C@H]1CO[C@H](/C=C/S(=O)(=O)c2ccc(F)cc2)OC1)[C@](O)(Cn1cncn1)c1ccc(F)cc1F.O=C(O)/C=C\C(=O)O | 4
52 | C[C@@H](S[C@H]1CO[C@H](c2ccc(C(=O)Nc3ccc(SC(F)(F)F)cc3)cc2)OC1)[C@](O)(Cn1cncn1)c1ccc(F)cc1F | 0.25 (≈ 0.375 µM)
53 | C[C@@H](S[C@H]1CO[C@H](c2ccc(C(=O)Nc3ccc(OCC(F)(F)C(F)F)cc3)cc2)OC1)[C@](O)(Cn1cncn1)c1ccc(F)cc1F | 0.125 (≈ 0.179 µM)
54 | C[C@@H](S[C@H]1CO[C@H](c2cccc(C(=O)Nc3ccc(C#N)cc3)c2)OC1)[C@](O)(Cn1cncn1)c1ccc(F)cc1F | 2 (≈ 3.38 µM)
55 | C[C@@H](S[C@H]1CO[C@H](c2ccc(C(=O)Nc3ccc(C#N)cc3)cc2)OC1)[C@](O)(Cn1cncn1)c1ccc(F)cc1F | 0.031 (≈ 0.0524 µM)

System: Candida parapsilosis
Experiment: Antifungal activity against Candida parapsilosis ATCC 90018
Format: functional
Conditions: Lodderomyces parapsilosis

Row | Compound | MIC [µg/mL]
56 | C[C@@H](S[C@H]1CO[C@H](c2ccc(C(=O)Nc3ccc(C#N)cc3)cc2)OC1)[C@](O)(Cn1cncn1)c1ccc(F)cc1F | ≤ 0.008
